Data from article PMC4503959, “Dopamine modulates hemocyte phagocytosis via a D1-like receptor in the rice stem borer, Chilo suppressalis” (Scientific Reports, 2015).

Biological target: T1, CsDOP1 (Chilo suppressalis, UniProt A0A0K0QVU3)
T1 construct: gene DOP1; receptor in pcDNA3, stably expressed in HEK 293 cells; GPCR coupled to Gs (cAMP increase)
T1 sequence (A0A0K0QVU3 1-409): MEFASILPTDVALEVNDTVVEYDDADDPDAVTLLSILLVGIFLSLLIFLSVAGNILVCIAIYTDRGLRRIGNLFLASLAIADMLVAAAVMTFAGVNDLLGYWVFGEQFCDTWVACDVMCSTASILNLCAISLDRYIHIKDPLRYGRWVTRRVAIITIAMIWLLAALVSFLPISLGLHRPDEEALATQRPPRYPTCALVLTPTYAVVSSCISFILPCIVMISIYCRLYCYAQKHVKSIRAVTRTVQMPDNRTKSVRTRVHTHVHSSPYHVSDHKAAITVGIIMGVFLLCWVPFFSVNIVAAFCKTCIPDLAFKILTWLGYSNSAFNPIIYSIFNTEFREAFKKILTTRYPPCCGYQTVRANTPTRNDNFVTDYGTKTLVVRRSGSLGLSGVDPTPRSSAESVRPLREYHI
Assay: intracellular cAMP accumulation
Format: cell-based

SMILES: NCCc1ccc(O)c(O)c1 [dopamine]
- EC50: 1.93 nM
